Reference: PubChem BioAssay AID248 (DTP/NCI, 2004)
Inconclusive results and toxic doses are left out. Rule as the data show it: active = T/C of 150% or more; inactive = T/C below 125%.

Tested on: L1210 leukemia ip in BDF1 mice, survival T/C
Test: NCI In Vivo Anticancer Drug Screen. Data for tumor model L1210 Leukemia (intraperitoneal) in B6D2F1 (BDF1) mice
Conditions: endpoint: mean survival time, higher = longer survival
Procedure, shortened: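 Transplantable tumor model; survival measured in treated vs vehicle control mice. Value = treated/control.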

[1] = dose: 100.0 mg/kg/injection, schedule: Q01DX001 (ip), vehicle: Klucel (hydroxypropylcellulose) (HPC)
[2] = dose: 100.0 mg/kg/injection, schedule: Q04DX003 (ip), vehicle: Klucel (hydroxypropylcellulose) (HPC)
[3] = dose: 200.0 mg/kg/injection, schedule: Q01DX001 (ip), vehicle: Klucel (hydroxypropylcellulose) (HPC)
[4] = dose: 200.0 mg/kg/injection, schedule: Q04DX003 (ip), vehicle: Klucel (hydroxypropylcellulose) (HPC)
[5] = dose: 400.0 mg/kg/injection, schedule: Q01DX001 (ip), vehicle: Klucel (hydroxypropylcellulose) (HPC)
[6] = dose: 400.0 mg/kg/injection, schedule: Q04DX003 (ip), vehicle: Klucel (hydroxypropylcellulose) (HPC)
[7] = dose: 100.0 mg/kg/injection, schedule: Q04DX002 (ip), vehicle: Klucel (hydroxypropylcellulose) (HPC)
[8] = dose: 200.0 mg/kg/injection, schedule: Q04DX002 (ip), vehicle: Klucel (hydroxypropylcellulose) (HPC)
[9] = dose: 400.0 mg/kg/injection, schedule: Q04DX002 (ip), vehicle: Klucel (hydroxypropylcellulose) (HPC)
[10] = dose: 100.0 mg/kg/injection, schedule: Q01DX009 (ip), vehicle: Klucel (hydroxypropylcellulose) (HPC)
[11] = dose: 200.0 mg/kg/injection, schedule: Q01DX009 (ip), vehicle: Klucel (hydroxypropylcellulose) (HPC)
[12] = dose: 400.0 mg/kg/injection, schedule: Q01DX009 (ip), vehicle: Klucel (hydroxypropylcellulose) (HPC)
[13] = dose: 50.0 mg/kg/injection, schedule: Q04DX003 (ip), vehicle: Klucel (hydroxypropylcellulose) (HPC)

Measured: T/C

O=C(O)c1cc(N=Nc2cccc([N+](=O)[O-])c2)ccc1O
inactive: dose: 62.5 mg/kg/injection, schedule: Q01DX001 (ip), vehicle: Klucel (hydroxypropylcellulose) (HPC) 97 % of control | dose: 125.0 mg/kg/injection, schedule: Q01DX001 (ip), vehicle: Klucel (hydroxypropylcellulose) (HPC) 92 % of control

O/N=C1\c2ccccc2-c2ccc(Br)cc21
inactive: dose: 100.0 mg/kg/injection, schedule: Q01DX001 (ip), vehicle: carboxymethylcellulose (CMC) 97 % of control | dose: 200.0 mg/kg/injection, schedule: Q01DX001 (ip), vehicle: carboxymethylcellulose (CMC) 117 % of control | dose: 400.0 mg/kg/injection, schedule: Q01DX001 (ip), vehicle: carboxymethylcellulose (CMC) 103 % of control

c1ccc(C2=NNC(c3ccccc3)=C(c3ccccc3)C2)cc1
inactive: [1] 89 % of control | [2] 98 % of control | [3] 103 % of control | [4] 100 % of control | [5] 101 % of control | [6] 100 % of control

CSc1ccc(OC(=O)Nc2cccc3ccccc23)cc1
inactive: [7] 96 % of control | [8] 104 % of control | [9] 101 % of control

Cc1cc(N(CCCl)CCCl)ccc1C=Nc1cccnc1
inactive: dose: 50.0 mg/kg/injection, schedule: Q01DX001 (ip), vehicle: other 100 % of control | dose: 100.0 mg/kg/injection, schedule: Q01DX001 (ip), vehicle: other 100 % of control | dose: 200.0 mg/kg/injection, schedule: Q01DX001 (ip), vehicle: other 92 % of control | dose: 400.0 mg/kg/injection, schedule: Q01DX001 (ip), vehicle: other 94 % of control

O=C(CCl)Nc1cccc2c1C(=O)c1c(c(O)c3ccccc3c1O)C2=O
inactive: dose: 100.0 mg/kg/injection, schedule: Q04DX003 (ip), vehicle: saline with Tween-80 94 % of control | dose: 200.0 mg/kg/injection, schedule: Q04DX003 (ip), vehicle: saline with Tween-80 92 % of control | dose: 400.0 mg/kg/injection, schedule: Q04DX003 (ip), vehicle: saline with Tween-80 90 % of control

CCCCNC(=O)Nc1cccc(C)c1C
inactive: [10] 101 % of control | [2] 95 % of control | [11] 94 % of control | [4] 93 % of control | [12] 93 % of control | [6] 97 % of control

CCOC(=N)CCCl
inactive: dose: 100.0 mg/kg/injection, schedule: Q01DX009 (ip), vehicle: saline with Tween-80 94 % of control | dose: 200.0 mg/kg/injection, schedule: Q01DX009 (ip), vehicle: saline with Tween-80 102 % of control | dose: 400.0 mg/kg/injection, schedule: Q01DX009 (ip), vehicle: saline with Tween-80 96 % of control

CCN(CCCCO)CCc1c[nH]c2ccc(OC)cc12
inactive: dose: 4.68 mg/kg/injection, schedule: Q01DX009 (ip), vehicle: saline 98 % of control | dose: 9.37 mg/kg/injection, schedule: Q01DX009 (ip), vehicle: saline 106 % of control | dose: 18.75 mg/kg/injection, schedule: Q01DX009 (ip), vehicle: saline 96 % of control | dose: 18.75 mg/kg/injection, schedule: Q04DX003 (ip), vehicle: saline 112 % of control | dose: 37.5 mg/kg/injection, schedule: Q01DX009 (ip), vehicle: saline 104 % of control | dose: 37.5 mg/kg/injection, schedule: Q04DX003 (ip), vehicle: saline 101 % of control | dose: 75.0 mg/kg/injection, schedule: Q01DX009 (ip), vehicle: saline 95 % of control | dose: 75.0 mg/kg/injection, schedule: Q04DX003 (ip), vehicle: saline 106 % of control | dose: 150.0 mg/kg/injection, schedule: Q01DX009 (ip), vehicle: saline 109 % of control

CC(C)(CN=Cc1cccc(O)c1)N=Cc1cccc(O)c1
inactive: dose: 75.0 mg/kg/injection, schedule: Q01DX009 (ip), vehicle: DMSO 95 % of control | dose: 100.0 mg/kg/injection, schedule: Q01DX001 (ip), vehicle: DMSO 100 % of control | dose: 100.0 mg/kg/injection, schedule: Q04DX003 (ip), vehicle: DMSO 89 % of control | dose: 150.0 mg/kg/injection, schedule: Q01DX009 (ip), vehicle: DMSO 93 % of control | dose: 200.0 mg/kg/injection, schedule: Q01DX001 (ip), vehicle: DMSO 96 % of control | dose: 200.0 mg/kg/injection, schedule: Q04DX003 (ip), vehicle: DMSO 88 % of control | dose: 400.0 mg/kg/injection, schedule: Q01DX001 (ip), vehicle: DMSO 100 % of control | dose: 400.0 mg/kg/injection, schedule: Q04DX003 (ip), vehicle: DMSO 89 % of control

O=C1C(c2ccccc2)CN1CC1CCCCC1 (stereo not drawn)
inactive: [1] 98 % of control | [3] 101 % of control | [5] 95 % of control

CCOC=Nc1c(C)c[n+]([O-])nc1OC
inactive: dose: 12.5 mg/kg/injection, schedule: Q04DX002 (ip), vehicle: saline 102 % of control | dose: 25.0 mg/kg/injection, schedule: Q04DX002 (ip), vehicle: saline 102 % of control | dose: 50.0 mg/kg/injection, schedule: Q04DX002 (ip), vehicle: saline 98 % of control

C1=C(c2ccccc2)N(C2CCCCCCC2)C(c2ccccc2)=CN1Cc1ccccc1
inactive: [7] 103 % of control | [8] 103 % of control | [9] 100 % of control

CC1(C)C(=NO)C(C)(C)C1=NO
inactive: dose: 12.5 mg/kg/injection, schedule: Q01DX009 (ip), vehicle: Klucel (hydroxypropylcellulose) (HPC) 105 % of control | dose: 12.5 mg/kg/injection, schedule: Q04DX003 (ip), vehicle: Klucel (hydroxypropylcellulose) (HPC) 108 % of control | dose: 25.0 mg/kg/injection, schedule: Q01DX009 (ip), vehicle: Klucel (hydroxypropylcellulose) (HPC) 106 % of control | [13] 104 % of control

O=C(Oc1ccccc1)C(Cl)(Cl)Cl
inactive: dose: 6.25 mg/kg/injection, schedule: Q01DX009 (ip), vehicle: saline 95 % of control | dose: 12.5 mg/kg/injection, schedule: Q01DX009 (ip), vehicle: saline 92 % of control | dose: 25.0 mg/kg/injection, schedule: Q01DX009 (ip), vehicle: saline 89 % of control | dose: 100.0 mg/kg/injection, schedule: Q01DX001 (ip), vehicle: acetone 98 % of control | dose: 100.0 mg/kg/injection, schedule: Q04DX003 (ip), vehicle: acetone 95 % of control | dose: 200.0 mg/kg/injection, schedule: Q01DX001 (ip), vehicle: acetone 90 % of control | dose: 200.0 mg/kg/injection, schedule: Q04DX003 (ip), vehicle: acetone 98 % of control | dose: 400.0 mg/kg/injection, schedule: Q01DX001 (ip), vehicle: acetone 100 % of control

CCCCCCCCCCCC(=O)NC(=S)Nc1ccc(C)c(Cl)c1
inactive: [2] 89 % of control | [4] 95 % of control | [6] 90 % of control

CC(=O)Nc1ccc(NC(=O)NC(C)(C)C)cc1
inactive: [10] 97 % of control | [11] 96 % of control | [12] 96 % of control

ClC(Cl)=C1C(Cl)=C(Cl)C(Cl)=C1Cl
inactive: dose: 50.0 mg/kg/injection, schedule: Q01DX009 (ip), vehicle: Klucel (hydroxypropylcellulose) (HPC) 97 % of control | [13] 96 % of control | [10] 100 % of control | [2] 96 % of control | [11] 94 % of control | [4] 93 % of control

CCCCOC(=O)C(C)OC(=O)CCC (stereo not drawn)
inactive: [10] 102 % of control | [2] 99 % of control | [11] 90 % of control | [4] 107 % of control | [12] 102 % of control | [6] 102 % of control

C1CC2CN(CCCN3CCOCC3)C(C1)O2 (stereo not drawn)
inactive: dose: 50.0 mg/kg/injection, schedule: Q01DX001 (ip), vehicle: saline 95 % of control | dose: 100.0 mg/kg/injection, schedule: Q01DX001 (ip), vehicle: saline 101 % of control | dose: 200.0 mg/kg/injection, schedule: Q01DX001 (ip), vehicle: saline 101 % of control | dose: 400.0 mg/kg/injection, schedule: Q01DX001 (ip), vehicle: saline 97 % of control

Cc1cc(Cl)cc(C(=O)Cl)c1O
inactive: dose: 100.0 mg/kg/injection, schedule: Q04DX002 (ip), vehicle: saline with Tween-80 111 % of control | dose: 200.0 mg/kg/injection, schedule: Q04DX002 (ip), vehicle: saline with Tween-80 107 % of control | dose: 400.0 mg/kg/injection, schedule: Q04DX002 (ip), vehicle: saline with Tween-80 103 % of control
